Measured values from patent publication US20070161592A1, “Method of treating fear” (priority 2005, published 2007).
Entries after “also recorded” stand apart in the source; their conditions may differ.

Assays:
NR2B = assay: Western blot of NR2B in ACC after siRNA electroporation; type: in vivo, mouse; settings: four days after electroporation
Description: Equal amounts of protein from the ACC and hippocampus were separated and electrotransferred onto PDVF membranes (Invitrogen), which were probed with anti-NR2A, anti-NR2B (Chemicon), and anti-PSD-95 (ABR) and with β-actin (Sigma) as a loading control. The membranes were incubated with horseradish peroxidase-conjugated secondary antibodies (anti-mouse IgG for PSD-95 and anti-rabbit IgG for the other primary antibodies), and bands were visualized using an ECL system (Perkin Elmer). Synaptosomal membrane fractions (LP1) were prepared as previously described (Dunah and Standaert, 2001) and solubilized using 1% SDS in TEVP buffer: 10 mM Tris-HCl, pH 7.4, 1 mM EDTA, 1 mM EGTA, 1× protease inhibitor cocktail (Sigma), and 1× phosphatase inhibitor cocktail 1 and 2 (Sigma). […] Results are expressed as means±SEM. […]
To inhibit NR2B expression specifically in the prefrontal cortex, including the ACC, siRNA was bilaterally delivered against NR2B with a reporter plasmid encoding EGFP by microelectroporation (Wei et al., 2003) (FIG. 8A). […] The expression levels of other NMDAR subunits (NR2A and NR1) and AMPA receptor subunit GluR1 were measured, and actin was used as a control in the ACCs of NR2B siRNA and control siRNA electroporated mice.

mice = assay: Locomotor activity in the open field; type: in vivo, mouse; settings: bilateral ACC microinjection, recorded 15 minutes or one day after injection
Description: NR2B subunit inhibition in adult mice was examined to determine whether this impairs the formation of contextual fear memory. Three days after bilateral siRNA electroporation, mice were trained (or conditioned) and then tested for contextual fear memory by assessing freezing behavior in the same environmental context after 24 hours. There was no difference in baseline freezing or in freezing immediately following the shock/tone pairing between groups; however, there was a significant difference between groups when tested in the contextual environment one day later (n=8 for EGFP only; n=10 for control siRNA; n=8 for shock only; n=11 for NR2B siRNA; one-way ANOVA, p=0.005; FIG. 8C). […] Since the activation of NR2B was suppressed throughout the training and memory test, the roles of NR2B during the acquisition and retrieval of fear memory cannot be distinguished. Recently, electric stimulation of the ACC was reported to induce fear memory one and three days after stimulation (Tang et al., 2005), which implies that the ACC may be involved in the acquisition of fear memory. To directly address this issue, the effect of NR2B blockade using Ro25-6981 was examined. […] In order to rule out any locomotor side-effects, locomotor activity in the open field was tested after bilateral ACC microinjection of Ro25-6981 (n=4) or vehicle (n=4).

male Sprague Dawley rats = assay: Rat fear conditioning (contextual and auditory fear memory); type: in vivo
From the text: For one site drug infusion, 23-guage guide cannulas were implanted bilaterally into the dorsal hippocampus (CA1 region: 3.2 mm posterior to Bregma, ±1.5˜1.7 mm lateral from the midline, 1.7 mm beneath the surface of the skull). For two sites drug infusion, guide cannulas were implanted bilaterally into the dorsal hippocampus (first injection site: 2.8 mm posterior to Bregma, ±1.5 mm lateral from the midline, 1.7 mm beneath the surface of the skull; second injection site: 3.8 mm posterior to Bregma, ±1.8˜2.2 mm lateral from the midline, 1.3 mm beneath the surface of the skull). The dummy cannulas, cut 0.5 mm longer than guide cannulas, were inserted into the guide cannulas to prevent clogging and reduce the risk of infection. Rats were given at least 5 days to recover before experimentation. A 30-gauge injection cannula that was 1.5 mm lower than the guide was used for intra-hippocampal infusion. 1.0 μl Ro25-6981 (0.1 μg /μl) or saline was delivered bilaterally at the rate of 0.5 μl/min using a pump. After infusion, the cannulas were left in place for an additional 2 min to allow the solution to diffuse away from the cannula tip. Fifteen minutes later, rats were conditioned by one pairing of a tone (2.2 kHz, 96 dB, 30 s) and a foot shock (2.0 mA, 2 s) that terminated at the same time as the tone. […] Rats were returned to the conditioning chamber and allowed to stay in the chamber for 3-min without footshock.
However, the effects of local hippocampal injections of NR2B antagonists on fear conditioning have not been examined. Ro25-6981 (5 μg in 0.5 μl) was bilaterally injected into dorsal hippocampi (FIG. 8B) before conditional training. […] The NR2B specific antagonist was also injected into the ACC and hippocampus of rats and contextual and auditory fear memory was then measured. […] Hippocampal injections of a higher dose of Ro25-6981 (5 μg in 1 μl per side) bilaterally or multiple injections of the same dose (2 per side) were then tested to determine their affect on either contextual or auditory fear memory.

[1] = hippocampal injections 5 μg in 1 μl per side, single or multiple (2 per side)

NR2B siRNA: siRNA corresponding to NR2B, sense 5′-GGAUGAGUCCUCCAUGUUCtt-3′, antisense 5′-GAACAUGGAGGACUCAUCCtt-3′, Silencer Pre-designed siRNA ID #61879, Ambion (sense GGAUGAGUCCUCCAUGUUCTT; antisense GAACAUGGAGGACUCAUCCTT; chemistry not given here)
NR2B expression compared to control siRNA electroporated control (NR2B): 64.8±4.6%

C[C@@H](CN1CCC(Cc2ccccc2)CC1)[C@@H](O)c1ccc(O)cc1 [Ro25-6981]
locomotor activity in the open field (mice): no difference in locomotor activity | contextual memory (male Sprague Dawley rats; 0.1 μg in 1 μl bilaterally into dorsal hippocampus before fear conditioning): did not impair contextual fear memory; also recorded: did not produce a significant impairment | auditory fear memory (male Sprague Dawley rats; [1]): Neither single nor multiple injections of Ro25-6981 produced a significant impairment | contextual fear memory (male Sprague Dawley rats; [1]): Neither single nor multiple injections of Ro25-6981 produced a significant impairment | contextual fear memory (male Sprague Dawley rats; in 1 μl per side bilaterally into the ACC before conditioning, tested one day after training): impaired contextual fear memory; also recorded: significant reduction in contextual fear memory | auditory fear memory (male Sprague Dawley rats; injected in the ACC): did not affect auditory fear memory | auditory fear memory (male Sprague Dawley rats; injected in the hippocampus): did not affect auditory fear memory
